Laboratory results: paper PMC12736255, “Reinvestigating Pyrrol-2-One-Based Compounds: From Antimicrobial Agents to Promising Antitumor Candidates” (Pharmaceuticals, 2025)

Tests used:
UACC-62 = assay: NCI-60 single-dose screen; assay type: cell-based; settings: Homo sapiens; UACC-62, 10^–5 M; read-out: GI (%)
Summary of the method: (§1)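 The National Cancer Institute screened these compounds at a fixed 10^−5 M in its sixty-line human tumor cell panel.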

HOP-92 = assay: NCI-60 single-dose screen; assay type: cell-based; settings: Homo sapiens; HOP-92, 10^–5 M; read-out: GI (%)
Summary of the method: as §1

T-47D [1] = assay: NCI-60 single-dose screen; assay type: cell-based; settings: Homo sapiens, T47D, 10^–5 M, read-out: GI (%)
Summary of the method: as §1

OVCAR-8 = assay: NCI-60 single-dose screen; assay type: cell-based; settings: Homo sapiens; OVCAR-8, 10^–5 M; read-out: GI (%)
Summary of the method: as §1

IGROV1 = assay: NCI-60 single-dose screen; assay type: cell-based; settings: Homo sapiens, IGROV-1; IGROV1, 10^–5 M; read-out: GI (%)
Summary of the method: as §1

HCC-2998 = assay: NCI-60 single-dose screen; assay type: cell-based; settings: Homo sapiens; HCC-2998, 10^–5 M; read-out: GI (%)
Summary of the method: as §1

SR = assay: NCI-60 single-dose screen; assay type: cell-based; settings: Homo sapiens, 10^–5 M, read-out: GI (%)
Summary of the method: as §1

SW-620 [2] = assay: NCI-60 single-dose screen; assay type: cell-based; settings: Homo sapiens; SW-620, 10^–5 M; read-out: GI (%)
Summary of the method: as §1

K-562 = assay: NCI-60 single-dose screen; assay type: cell-based; settings: Homo sapiens, K562; K-562, 10^–5 M; read-out: GI (%)
Summary of the method: as §1

TK-10 [3] = assay: NCI-60 single-dose screen; assay type: cell-based; settings: Homo sapiens; TK-10, 10^–5 M; read-out: GI (%)
Summary of the method: as §1

HL-60(TB) = assay: NCI-60 single-dose screen; assay type: cell-based; settings: Homo sapiens, 10^–5 M, read-out: GI (%)
Summary of the method: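 Each compound is applied at 10^−5 M to human tumor lines of the NCI-60 panel, which spans nine cancer types including melanoma, renal, CNS and ovarian.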

NCI-H322M = assay: NCI-60 single-dose screen; assay type: cell-based; settings: Homo sapiens, 10^–5 M, read-out: GI (%)
Summary of the method: as §1

NCI-H460 = assay: NCI-60 single-dose screen; assay type: cell-based; settings: Homo sapiens; NCI-H460, 10^–5 M; read-out: GI (%)
Summary of the method: as §1

MDA-MB-468 = assay: NCI-60 single-dose screen; assay type: cell-based, human; settings: MDA-MB-468, 10^–5 M
Description: (§2) In the next step, all synthesized compounds were electronically submitted and accepted for testing to the National Cancer Institute (NCI) platform, for the single dose (10^−5 M) screening against a panel of 60 human tumor cell lines, representing leukemia, melanoma, and cancers of the lung, colon, central nervous system, ovary, kidney, prostate, and breast. The results are summarized in Table 2, with the best values highlighted in red (Figures S1–S14).

HOP-62 [4] = assay: NCI-60 single-dose screen; assay type: cell-based, human; settings: HOP-62, 10^–5 M
Description: as §2

UO-31 = assay: NCI-60 single-dose screen; assay type: cell-based, human; settings: UO-31, 10^–5 M
Description: as §2

U251 = assay: NCI-60 single-dose screen; assay type: cell-based, human; settings: U251, 10^–5 M
Description: as §2

SF-295 = assay: NCI-60 single-dose screen; assay type: cell-based, human; settings: SF-295, 10^–5 M
Description: as §2

BT-549 [5] = assay: NCI-60 single-dose screen; assay type: cell-based, human; settings: BT-549, 10^–5 M
Description: as §2

NCI-H226 [6] = assay: NCI-60 single-dose screen; assay type: cell-based, human; settings: Homo sapiens; NCI-H226, 10^–5 M; read-out: GI (%)
Description: as §2

EKVX = assay: NCI-60 single-dose screen; assay type: cell-based, human; settings: Homo sapiens, 10^–5 M, read-out: GI (%)
Description: as §2

SK-OV-3 = assay: NCI-60 5-dose screen; assay type: cell-based, human
NCI-H226 [7] = assay: NCI-60 5-dose screen; assay type: cell-based, human
HT29 = assay: NCI-60 5-dose screen; assay type: cell-based, human
MDA-MB-231/ATCC = assay: NCI-60 5-dose screen; assay type: cell-based, human
SNB-75 = assay: NCI-60 5-dose screen; assay type: cell-based, human
SK-MEL-2 = assay: NCI-60 5-dose screen; assay type: cell-based, human
PC-3 = assay: NCI-60 5-dose screen; assay type: cell-based, human
SW-620 [8] = assay: NCI-60 5-dose screen; assay type: cell-based, human
TK-10 [9] = assay: NCI-60 5-dose screen; assay type: cell-based, human
CAKI-1 = assay: NCI-60 5-dose screen; assay type: cell-based, human
T-47D [10] = assay: NCI-60 5-dose screen; assay type: cell-based, human
HOP-62 [11] = assay: NCI-60 5-dose screen; assay type: cell-based, human
M14 = assay: NCI-60 5-dose screen; assay type: cell-based, human
BT-549 [12] = assay: NCI-60 5-dose screen; assay type: cell-based, human
[13] = Homo sapiens, read-out: LC50 (the source's name)

## COc1ccc(C2C=C(Nc3ccc(I)cc3)C(=O)N2c2ccc(I)cc2)cc1OC (stereo not drawn) [3j]
UACC-62
  inhibition at 10 µM: 0%
HOP-92
  inhibition at 10 µM: 0%
T-47D [1]
  inhibition at 10 µM: 6%
OVCAR-8
  inhibition at 10 µM: 0%
IGROV1
  inhibition at 10 µM: 0%
HCC-2998
  inhibition at 10 µM: 0%
SR
  inhibition at 10 µM: 0%
SW-620 [2]
  inhibition at 10 µM: 0%
K-562
  inhibition at 10 µM: 0%
TK-10 [3]
  inhibition at 10 µM: 0%
HL-60(TB)
  inhibition at 10 µM: 0%
NCI-H322M
  inhibition at 10 µM: 0%
NCI-H460
  inhibition at 10 µM: 0%
MDA-MB-468
  GI (%): 22%
HOP-62 [4]
  GI (%): 0%
UO-31
  GI (%): 0%
U251
  GI (%): 0%
SF-295
  GI (%): 0%
BT-549 [5]
  GI (%): 0%
NCI-H226 [6]
  inhibition at 10 µM: 0%
EKVX
  inhibition at 10 µM: 40%

## COc1ccccc1C1C=C(Nc2ccc(I)cc2)C(=O)N1c1ccc(I)cc1 (stereo not drawn) [3i]
UACC-62
  inhibition at 10 µM: 21%
HOP-92
  inhibition at 10 µM: 20%
T-47D [1]
  inhibition at 10 µM: 39%
OVCAR-8
  inhibition at 10 µM: 17%
IGROV1
  inhibition at 10 µM: 57%
HCC-2998
  inhibition at 10 µM: 21%
SR
  inhibition at 10 µM: 23%
SW-620 [2]
  inhibition at 10 µM: 14%
K-562
  inhibition at 10 µM: 9%
TK-10 [3]
  inhibition at 10 µM: 30%
HL-60(TB)
  inhibition at 10 µM: 0%
NCI-H322M
  inhibition at 10 µM: 0%
NCI-H460
  inhibition at 10 µM: 9%
MDA-MB-468
  GI (%): 43%
HOP-62 [4]
  GI (%): 0%
UO-31
  GI (%): 27%
U251
  GI (%): 0%
SF-295
  GI (%): 28%
BT-549 [5]
  GI (%): 2%
NCI-H226 [6]
  inhibition at 10 µM: 36%
EKVX
  inhibition at 10 µM: 49%

## O=C1C(Nc2ccc(I)cc2)=CC(c2ccc(O)c(O)c2)N1c1ccc(I)cc1 (stereo not drawn) [3h]
SK-OV-3
  TGI: >100 µM
SK-OV-3; Homo sapiens
  GI50: 7.6 µM
SK-OV-3; [13]
  CC50: > 100 µM
NCI-H226 [7]
  TGI: >100 µM
NCI-H226 [7]; Homo sapiens
  GI50: > 100 µM
NCI-H226 [7]; [13]
  CC50: > 100 µM
HT29
  TGI: >100 µM
HT29; Homo sapiens, HT-29
  GI50: 8.8 µM
HT29; Homo sapiens, HT-29, read-out: LC50 (the source's name)
  CC50: > 100 µM
MDA-MB-231/ATCC
  TGI: >100 µM
MDA-MB-231/ATCC; Homo sapiens
  GI50: > 100 µM
MDA-MB-231/ATCC; [13]
  CC50: > 100 µM
SNB-75
  TGI: >100 µM
SNB-75; Homo sapiens
  GI50: > 100 µM
SNB-75; [13]
  CC50: > 100 µM
SK-MEL-2
  TGI: >100 µM
SK-MEL-2; Homo sapiens
  GI50: 6.64 µM
SK-MEL-2; [13]
  CC50: > 100 µM
PC-3
  TGI: >100 µM
PC-3; Homo sapiens
  GI50: 8.83 µM
PC-3; [13]
  CC50: > 100 µM
SW-620 [8]
  TGI: >100 µM
SW-620 [8]; Homo sapiens
  GI50: > 100 µM
SW-620 [8]; [13]
  CC50: > 100 µM
TK-10 [9]
  TGI: >100 µM
TK-10 [9]; Homo sapiens
  GI50: > 100 µM
TK-10 [9]; [13]
  CC50: > 100 µM
CAKI-1
  TGI: >100 µM
CAKI-1; Homo sapiens
  GI50: > 100 µM
CAKI-1; [13]
  CC50: > 100 µM
T-47D [10]
  TGI: >100 µM
T-47D [10]; Homo sapiens, T47D
  GI50: 2.41 µM
T-47D [10]; Homo sapiens, T47D, read-out: LC50 (the source's name)
  CC50: > 100 µM
UACC-62
  inhibition at 10 µM: 62%
HOP-92
  inhibition at 10 µM: 66%
T-47D [1]
  inhibition at 10 µM: 65%
OVCAR-8
  inhibition at 10 µM: 37%
IGROV1
  inhibition at 10 µM: 26%
HCC-2998
  inhibition at 10 µM: 98%
SR
  inhibition at 10 µM: 100%
SW-620 [2]
  inhibition at 10 µM: 100%
K-562
  inhibition at 10 µM: 89%
TK-10 [3]
  inhibition at 10 µM: 50%
HL-60(TB)
  inhibition at 10 µM: 100%
NCI-H322M
  inhibition at 10 µM: 34%
NCI-H460
  inhibition at 10 µM: 98%
HOP-62 [11]
  TGI: >100 µM
HOP-62 [11]; Homo sapiens
  GI50: > 100 µM
HOP-62 [11]; [13]
  CC50: > 100 µM
MDA-MB-468
  GI (%): 100 ^h1%
HOP-62 [4]
  GI (%): 82%
UO-31
  GI (%): 54%
U251
  GI (%): 58%
SF-295
  GI (%): 56%
BT-549 [5]
  GI (%): 81%
NCI-H226 [6]
  inhibition at 10 µM: 35%
EKVX
  inhibition at 10 µM: 22%
M14
  TGI: >100 µM
M14; Homo sapiens
  GI50: 5.34 µM
M14; [13]
  CC50: > 100 µM
BT-549 [12]
  TGI: >100 µM
BT-549 [12]; Homo sapiens
  GI50: > 100 µM
BT-549 [12]; [13]
  CC50: > 100 µM
